Patent US6214374A, “Compositions, methods and devices for the transdermal delivery of drugs” (priority 1996, dated 2001)
Read-outs that look alike come from different tables or passages of the source.

What was measured:
[1] = Transdermal penetration of progesterone: oleic acid, myristic acid and butylurea enhancers; assay type: in vitro ADME, human
Text: Excised full-thickness human skin was obtained from elective surgery, (e.g., breast reductions) or occasionally, from amputated legs. The tissue was stored in plastic containers at refrigerator temperature until use, at which time the subcutaneous fat and connective tissue were carefully trimmed off. Skin specimen thickness was in the range 1.5-2.0 mm, with characteristic histological features preserved.
Tritium-labeled progesterone was obtained from NEN-DuPont (Wilmington, Del.), with the label at ring positions 1, 2, 6, and 7. It was incorporated in the test compositions in the range 100 to 500 DPM (Disintegration Per Minute) per microgram of progesterone. The labeled progesterone was incorporated at the pre-polymerization stage, i.e., just as water is added to form the hydrogel polymer. Aliquots of the gelling mixtures were added to small amounts of tritiated progesterone in scintillation vials (after the solvent had been evaporated), and stirred briskly with a small spatula. The vials were then tightly capped and stored at room temperature. […]
Rates of transdermal penetration of progesterone were determined for three samples: A-1, A-2, and A-3. […]
Some of the data from these determinations are plotted in FIG. 16, to illustrate how the rates were determined. […]

[2] = Intradermal penetration of progesterone by autoradiography
Text: Therefore, an alternative procedure was used to acquire skin surface biopsies (Marks and Dawber, 1971, Brit. J. Dermatol. 85:117-123). Surface biopsies consist of a sheet of the top 2-3 layers of the stratum corneum, which retain vellus hairs on the underside, along with fragments of the pilosebaceous ducts known as "follicular casts" (Lavker and Leyden, 1979, "Lamellar Inclusions in Follicular Horny Cells: A New Aspect of Abnormal Keratinization," J. Ultrastruct. Res. 69: 362-370). These samples are produced by application of a drop of cyanoacrylate adhesive on a microscope slide to the surface of the skin, and after the adhesive sets, the slide with adhering tissue is carefully peeled off.
Discs of skin were prepared as described in "Methods", for measurement of intradermal penetration, but using much larger washers to provide test sites of about 10 cm2 in area. A test formula containing 20% progesterone (Sample Z) was applied, and uptake into the skin was allowed to proceed for one hour, and for 20 hours. Surface residue was removed at the indicated times, using the rinse/wipe procedure described. Skin surface biopsies were taken from 1 & 20-Hr skin discs, and coated with photographic emulsion (Illford K-2 emulsion, Illford, London), then allowed to develop for 14 days. Rinsing and fixing were done as prescribed by the manufacturer.

[3] = oral, vaginal or rectal; cited from earlier work
[4] = Progesterone penetration through a dialysis membrane; assay type: in vitro ADME
Method: Tritium-labeled progesterone was obtained from NEN-DuPont (Wilmington, Del.), with the label at ring positions 1, 2, 6, and 7. It was incorporated in the test compositions in the range 100 to 500 DPM (Disintegration Per Minute) per microgram of progesterone. The labeled progesterone was incorporated at the pre-polymerization stage, i.e., just as water is added to form the hydrogel polymer. Aliquots of the gelling mixtures were added to small amounts of tritiated progesterone in scintillation vials (after the solvent had been evaporated), and stirred briskly with a small spatula. The vials were then tightly capped and stored at room temperature. Milligram portions of this mixture were then taken from widely-spaced sites from within the vials, rapidly weighed, and dispersed in scintillation cocktail for determination of specific activities.
Transdermal penetration was performed in a single-chamber, solvent-replacement Diffusion Cell, held vertically and inverted (FIG. 13). Half-inch diameter discs of skin to which nylon washers had been cemented with cyanoacrylate were used. The available diffusional area of each skin disc enclosed by the nylon washer was 0.495 cm^2. […]
Thus, penetration of progesterone through a dialysis membrane, which was assumed to be more permeable than the skin, was measured to see how much progesterone could accumulate in the receptor of the diffusion cells. […]

[5] = cited from earlier work
[6] = in vivo; cited from earlier work
[7] = combination of progesterone and estrogen; cited from earlier work
[8] = cited from earlier work; remark: listed apart in the source
[9] = assay type: in vitro ADME, human
Method: Transdermal penetration was performed in a single-chamber, solvent-replacement Diffusion Cell, held vertically and inverted (FIG. 13). Half-inch diameter discs of skin to which nylon washers had been cemented with cyanoacrylate were used. The available diffusional area of each skin disc enclosed by the nylon washer was 0.495 cm^2. The cell was assembled from parts of a commercial PVC coupling manufactured by Genova Products, Inc., Davison, Mich. The body of the coupling serves as the receptor chamber. The skin disc (5), kept flat by the nylon washer (6) cemented to its surface, is seated in the bottom end of the chamber, dermal side in contact with the receptor fluid (8). After test material is applied to the skin surface, an O-ring (4) and a flanged PVC washer (2) coated with aluminum foil (3) are positioned under the nylon washer on the skin, and a retaining nut (1) is carefully tightened under all. A small, teflon-covered magnetic stirring button (7) and the receptor fluid are introduced, after which the top end of the coupling is stoppered with another foil-coated flanged washer (9). After assembly, the cell is held in a rack on a magnetic stirrer, in a 32° C. incubator. The magnetic stirring button is used to stir the receptor fluid in the inverted cell, and this button spins in direct contact with the dermal side of the skin. […]

Row | SMILES | efficacy in promoting the penetration of progesterone through the skin [1] | accumulation in follicles vs stratum corneum, autoradiography [2] | distribution of progesterone in the skin, autoradiography [2] | distribution depth within the follicle, autoradiography ([2]; 0.2 mm-long follicular fragment) | half life in the body [3] | lag time, dialysis membrane [4] | rate of penetration through dialysis membrane ([4]; about 1.5 hours) | amount penetrated in a 24-hour period ([5]; 24 hours, thin film in vivo, Guy et al.) | penetration rate reported by Guy et al. ([5]; human skin in vivo) [μg/cm^2 /day] | amount of progesterone in the breast tissue [6] | increase in progesterone concentration in breast tissue [6] | mean serum level giving an optimal effect in the treatment of menopause [7] [ng/mL] | rate of transdermal penetration in vitro ([8]; 2-pyrrolidone enhancer) | rate of transdermal penetration in vitro ([8]; N-methylformamide enhancer) | rate of transdermal penetration in vitro ([8]; no enhancer, acetone solution) [μg/cm^2 /hour] | increase of rate after removal of the epidermis [9]
1 | CCCCNC(N)=O [n-butylurea, butylurea] | clearly the most efficacious of the three | – | – | – | – | – | – | – | – | – | – | – | – | – | – | –
2 | CC(=O)[C@H]1CC[C@H]2[C@@H]3CCC4=CC(=O)CC[C@]4(C)[C@H]3CC[C@]12C [progesterone, pregn-4-ene-3,20-dione] | – | Accumulation in the follicles appeared to be faster than in the stratum corneum | preferential accumulation of progesterone in the pilosebaceous follicles | distributed uniformly to this depth within the lipid-rich interior of the follicle | about 2.2 hours | no lag time | about 30 μg/cm^2 /Hr | about 1.2 μg/cm^2 | 1.2 | high amounts | five-fold | 2 | 11.4 (+/-4.6) μg/cm^2 /hour | 12.4 (+/-4.4) μg/cm^2 /hour | 0.477 | about 2 fold
